Measurements: patent US10662164B2, “Non-beta lactam antibiotics” (University of Notre Dame du Lac, priority 2014, dated 2020)
Values after ≈ are worked out from the molar mass of the structure shown. Like-named read-outs stand apart in the source and are kept apart here.

Experiments:
E. faecium NCTC 7171 = assay: MIC determination; format: cell-based, Enterococcus faecium; conditions: Enterococcus faecium
[1] = Plasma protein binding, equilibrium dialysis; conditions: 10 μM, 37° C., 6 h
Description: Protein binding for compounds 60b, 60c, 65b, 66b, 75b and 76b was determined in human plasma using equilibrium dialysis.
Plasma protein binding was determined using human plasma and a rapid equilibrium dialysis device (Pierce Biotechnology, Thermo Scientific, Waltham, Mass., USA). Human plasma was thawed and centrifuged at 1200 g for 10 min to remove particulates. A […] aliquot of human plasma was added to the sample chamber and 350 μL of 0.1 M phosphate buffered saline (pH 7.4) containing […] sodium chloride was added to the adjacent chamber. A 2-μL aliquot of a stock solution of the compounds at a concentration of 1 mM in DMSO was diluted with human plasma to a final drug concentration of 10 μM and added to the sample chamber. The compounds were dialyzed at 37° C. in an orbital shaker for 6 h. Aliquots (50 μL) were taken from the buffer chamber (representing the free concentration) and from the plasma chamber (representing the total concentration) and mixed with 100 μL of internal standard in acetonitrile to a final concentration of 5 μM. Samples were analyzed by UPLC with UV detection at 285 nm. The plasma protein binding ratio (B %) was calculated according to the following equation: B%=(Cp−Cf)/Cp×100 where Cp and Cf are the total plasma concentration and the free concentration of compound, respectively.

S. aureus ATCC 27660 = assay: Mouse peritonitis model of infection; format: in vivo; conditions: for Mouse peritonitis (survived/total): iv at 20 mg/kg at 30 min and 7.5 h after infection, survival at 48 h
Description: Compounds 60b, 60c, 65b, 66b, 75b and 76b were evaluated in the mouse peritonitis model of infection (Table 2). We used the ICR out-bred strain of mice that provides a heterogeneous population, similar to the human situation, thus, ensuring the relevance of the antibacterial effect. This animal model of infection is widely used, it is easy to carry out, and the end points (death or survival) are rapidly assessed, making it less resource-intensive compared to other infection models. In addition, excellent correlation between MIC and ED50 has been shown for 14 β-lactam antibiotics using this model (Kratochwil et al., Biochem. Pharmacol. 2002, 64, 1355). The mouse peritonitis infection model continues to be an important model for evaluation of the efficacy of antibiotics against human pathogens. We use the iv route of administration in initial efficacy studies, as this allows us to test the efficacy without knowledge of the oral bioavailability of the lead. Evaluation was done at 20 mg/kg.
Female ICR mice (6-8 weeks old, ˜20-g body weight) were used for the PK and peritonitis studies. Animals were purchased from Harlan Laboratories, Inc. (Indianapolis, Ind., USA) and given Teklad 2019 Extruded Rodent Diet and water ad libitum. Mice were maintained in polycarbonate shoebox cages with ¼″ corncob (The Andersons Inc., Maumee, Ohio) and Alpha-dri (Sheperd Specialty Papers, Inc., Richland, Mich.) bedding under 12-h light/12-h dark cycle at 72±2° F.
The mouse peritonitis model was used with S. aureus ATCC 27660, as described previously (Tran et al., Am. J. Clin. Dermatol. 2015; doi 10.1007/S40257-015-0125-9). The final bacterial inocula contained 5×10^7 cfu/mL and 5% mucin (Sigma-Aldrich Chemical Co., St Louis, Mo., USA). Just prior to inoculation, bacteria at 10^8 cfu/mL were mixed 1:1 with 10% mucin. Mice (n=6 per group) were given 0.5 mL of the bacterial inocula intraperitoneally. Mice were given two iv doses of the compounds at 30 min and 7.5 h after infection by tail vein injection. […] Mice were monitored for 48 h, at which time the number of surviving mice were counted.
The effective dose that results in survival of 50% of the mice was determined using Probit analysis (XLSTAT, New York, N.Y.). Groups of six mice per dose level were evaluated in the mouse peritonitis infection model at iv doses of 2.5, 5, 7.5, 10, 15, and 20 mg/kg and after po doses at 2.5, 5, 10, 20, and 40 mg/kg. […]

S. aureus ATCC 29213 = assay: MIC determination; format: cell-based, Staphylococcus aureus; conditions: for MIC: Staphylococcus aureus
S. epidermis ATCC 35547 = assay: MIC determination; format: cell-based
Source text: (§1) The ESKAPE organisms (E. faecium NCTC (ATCC 19734), S. aureus ATCC 29213, K. pneumonia ATCC 700603, A. baumannii ATCC 17961, P. aeruginosa ATCC 17853, E. aerogenes ATCC 35029) and E. coli ATCC 25922) in the initial screen, S. aureus ATCC 27660, S. epidermis ATCC 35547, S. haemolyticus ATCC 29970, S. oralis ATCC 9811, S. pyogenes ATCC 49399, B. cereus ATCC 13061, B. licheniformis ATCC 12759, and E. faecalis ATCC 29212 were purchased from the American Type Culture Collection (Manassas, Va., USA). S. aureus strains NRS100, NRS119, NRS120, VRS1, and VRS2 were obtained from the Network on Antimicrobial Resistance in Staphylococcus aureus (Chantilly, Va., USA). E. faecalis strains 201 and 99, and E. faecium strains 119-39A and 106 were collected from Wayne State University School of Medicine.
(§2) The procedure for MIC determination was the same as previously reported (Tran et al., Am. J. Clin. Dermatol. 2015; doi 10.1007/S40257-015-0125-9).

S. pyogenes ATCC 49399 = assay: MIC determination; format: cell-based; conditions: Streptococcus pyogenes, ATCC49399
Source text: as §1, §2

S. aureus NRS100 (COL) = assay: MIC determination; format: cell-based; conditions: Staphylococcus aureus
Source text: as §1, §2

B. cereus ATCC 13061 = assay: MIC determination; format: cell-based; conditions: Bacillus cereus, ATCC13061
Source text: as §1, §2

[2] = test system: S. haemolyticus ATCC 29970; assay: MIC determination; format: cell-based; conditions: Staphylococcus haemolyticus, ATCC29970
Source text: as §1, §2

S. aureus VRS1 = assay: MIC determination; format: cell-based; conditions: Staphylococcus aureus
Source text: as §1, §2

S. oralis ATCC 9811 = assay: MIC determination; format: cell-based; conditions: Streptococcus oralis, ATCC9811
Source text: as §1, §2

[3] = NCTC7171, Table 1, read-out: MIC
[4] = NCTC7171, Table 3.1, compounds of Schemes 2-4, read-out: E. faecium NCTC 7171 MIC
[5] = Staphylococcus aureus, ATCC27660, iv, 2 doses given at 30 min and 7.5 h after infection, read-out: ED50
[6] = Staphylococcus aureus, ATCC27660, po, single dose given at 1 h after infection, read-out: ED50
[7] = ATCC29213, Table 3.1 and SAR text, compounds of Schemes 2-4, read-out: S. aureus ATCC 29213 MIC
[8] = ATCC29213, quality-control, methicillin-susceptible strain, Tables 1 and 5, read-out: MIC
[9] = mecA positive, resistant to methicillin, oxacillin, tetracycline, Tables 1 and 5, read-out: MIC
[10] = vancomycin-resistant MRSA (vanA) isolate from Michigan, Tables 1 and 5, read-out: MIC

SMILES	MIC (E. faecium NCTC 7171; [3]) [µg/mL]	MIC (E. faecium NCTC 7171; [4]) [µg/mL]	Human plasma protein binding [1] [%]	MIC (S. aureus ATCC 29213; [7]) [µg/mL]	MIC (S. aureus ATCC 29213; [8]) [µg/mL]	MIC (S. epidermis ATCC 35547; Tables 1 and 5, read-out: MIC) [µg/mL]	MIC (S. pyogenes ATCC 49399; Table 1, read-out: MIC) [µg/mL]	MIC (S. aureus NRS100 (COL); [9]) [µg/mL]	MIC (B. cereus ATCC 13061; Tables 1 and 5, read-out: MIC) [µg/mL]	MIC ([2]; Tables 1 and 5, read-out: MIC) [µg/mL]	MIC (S. aureus VRS1; [10]) [µg/mL]	MIC (S. oralis ATCC 9811; Table 1, read-out: MIC) [µg/mL]	Mouse peritonitis (survived/total) (S. aureus ATCC 27660)	other results
Oc1ccc(-c2nc(-c3ccc(Oc4ccc(C(F)(F)F)cc4)cc3)no2)cc1 [Compound 1]	2 (≈ 5.02 µM)	1 (≈ 2.51 µM)	99.9 ± 0.1	1 (≈ 2.51 µM)	2 (≈ 5.02 µM)	2 (≈ 5.02 µM)	32 (≈ 80.3 µM)	2 (≈ 5.02 µM)	2 (≈ 5.02 µM)	2 (≈ 5.02 µM)	2 (≈ 5.02 µM)	32 (≈ 80.3 µM)		ED50 (S. aureus ATCC 27660; [5]): 40 mg/kg; ED50 (S. aureus ATCC 27660; [6]): 44 mg/kg
FC(F)(F)c1ccc(Oc2ccc(-c3noc(-c4n[nH]cc4Cl)n3)cc2)cc1 [Compound 60b, 5-(4-Chloro-1H-pyrazol-3-yl)-3-(4-(4-(trifluoromethyl)phenoxy)phenyl)-1,2,4-oxadiazole]	16 (≈ 39.3 µM)	2 (≈ 4.92 µM)	97.8 ± 0.3	1 (≈ 2.46 µM)		> 128	> 128	> 128	> 128	> 128	1 to 2 (≈ 2.46 to 4.92 µM)	> 128	4/6	
Fc1ccc(Oc2ccc(-c3noc(-c4n[nH]cc4Cl)n3)cc2)cc1 [Compound 60c, 5-(4-Chloro-1H-pyrazol-3-yl)-3-(4-(4-fluorophenoxy)phenyl)-1,2,4-oxadiazole]	32 (≈ 89.7 µM)	8 (≈ 22.4 µM)	94.5 ± 2.1	0.5 (≈ 1.4 µM)	1 (≈ 2.8 µM)	> 128	> 128	> 128	> 128	> 128	1 (≈ 2.8 µM)	> 128	2/6	
CC(C)Nc1c[nH]nc1-c1nc(-c2ccc(Oc3ccc(C(F)(F)F)cc3)cc2)no1 [Compound 65b, N-Isopropyl-3-(3-(4-(4-(trifluoromethyl)phenoxy)phenyl)-1,2,4-oxadiazol-5-yl)-1H-pyrazol-4-amine]			91.6 ± 0.3										1/6	MIC (E. faecium NCTC 7171; NCTC7171): 32 µg/mL (≈ 74.5 µM); MIC (E. faecium NCTC 7171; NCTC7171, read-out: E. faecium NCTC 7171 MIC): > 128 µg/mL; MIC (S. aureus ATCC 29213; ATCC29213): 0.5 µg/mL (≈ 1.16 µM); MIC (S. aureus ATCC 29213; ATCC29213, read-out: S. aureus ATCC 29213 MIC): 0.5 µg/mL (≈ 1.16 µM); MIC (S. epidermis ATCC 35547): > 128 µg/mL; MIC (S. pyogenes ATCC 49399): > 128 µg/mL; MIC (S. aureus NRS100 (COL)): > 128 µg/mL; MIC (B. cereus ATCC 13061): > 128 µg/mL; MIC [2]: > 128 µg/mL; MIC (S. aureus VRS1; MRSA): 1 µg/mL (≈ 2.33 µM); MIC (S. oralis ATCC 9811): > 128 µg/mL
C#Cc1c[nH]nc1-c1nc(-c2ccc(Oc3ccc(C(F)(F)F)cc3)cc2)no1 [Compound 66b, 5-(4-Ethynyl-1H-pyrazol-3-yl)-3-(4-(4-(trifluoromethyl)phenoxy)phenyl)-1,2,4-oxadiazole]		> 128	96.4 ± 2.7	0.25 (≈ 0.631 µM)		> 128	> 128	> 128	> 128	> 128	1 (≈ 2.52 µM)	> 128	2/6	S. aureus ATCC 29213 MIC (S. aureus ATCC 29213; Table 3.1, compounds of Schemes 2-4): 0.25 µg/mL
FC(F)(F)c1ccc(Oc2ccc(-c3noc(-c4ccc5[nH]ccc5c4)n3)cc2)cc1 [Compound 75b, 5-(1H-Indol-5-yl)-3-(4-(4-(trifluoromethyl)phenoxy)phenyl)-1,2,4-oxadiazole]	2 to 4 (≈ 4.75 to 9.49 µM)	2 (≈ 4.75 µM)	98.2±3.2	4 (≈ 9.49 µM)	2 (≈ 4.75 µM)		64 (≈ 152 µM)		16 (≈ 38 µM)	8 (≈ 19 µM)	1 (≈ 2.37 µM)	128 (≈ 304 µM)	5/6	ED50 (S. aureus ATCC 27660; [5]): 7.6 mg/kg; ED50 (S. aureus ATCC 27660; Staphylococcus aureus, ATCC27660, po, 2 doses given at 30 min and 7.5 h after infection, read-out: ED50): 1.7 mg/kg; ED50 (S. aureus ATCC 27660; [6]): 3.1 mg/kg; ED50 (S. aureus ATCC 27660; iv, 2 doses given at 30 min and 7.5 h after infection): 7.6 mg/kg; ED50 (S. aureus ATCC 27660; po, 2 doses given at 30 min and 7.5 h after infection): 1.7 mg/kg; ED50 (S. aureus ATCC 27660; po, single dose given at 1 h after infection): 3.1 mg/kg; ED50, fold better than that of 1 (S. aureus ATCC 27660; single po dose given at 1 h after infection): 14 fold
FC(F)(F)c1ccc(Oc2ccc(-c3noc(-c4c[nH]cn4)n3)cc2)cc1 [Compound 76b, 5-(1H-Imidazol-4-yl)-3-(4-(4-(trifluoromethyl)phenoxy)phenyl)-1,2,4-oxadiazole]	8 to 16 (≈ 21.5 to 43 µM)	4 (≈ 10.7 µM)	93.5 ± 2.4	2 (≈ 5.37 µM)		32 (≈ 86 µM)	128 (≈ 344 µM)	32 (≈ 86 µM)		16 (≈ 43 µM)	1 (≈ 2.69 µM)	> 128	3/6	
